Read-outs that look alike come from different tables or passages of the source.
Key:
human hepatocytes = test: Metabolic studies in primary hepatocytes; assay type: in vitro ADME; details: 10 μM, 2-24 hr
Experimental: The metabolism of compounds 25, 27 and 5-2, at a concentration of 10 μM, were investigated in fresh primary cultures of human, dog and mouse hepatocytes. Plated hepatocytes from humans (XenoTech, mixed gender, pooled from 10 donors), male Beagle dog (BioreclamationIVT), and male ICR/CD-1 mice (BioreclamationIVT, 8 donors) in 6-well plates with matrigel overlay were incubated in singlet with 10 μM TA. After 2, 4, 6, 8 or 24 hr, intracellular levels of nucleotide prodrugs and their potential metabolites (prodrugs, monophosphates, triphosphates and nucleosides) were quantitated by LC-MS/MS. Concentrations below the lower limit of quantitation (1.5 pmol/10^6 cells for prodrugs, monophosphates and nucleosides and 12 pmol/10^6 cells for triphosphates) were extrapolated from the standard curves.

[1] = Cytotoxicity by XTT staining in replicon cells; details: human
Outline: (§1)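 Cells cultured 24 h, then exposed 72 h to six half-log dilutions (top 100.0 or 1.0 μM) in triplicate, with interferon-alpha2b reference and medium-only controls. Viability read by XTT staining on a parallel plate; TC50 derived from concentration-response.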

Huh-7 luc/neo ET cells = test: Cytotoxicity by XTT staining in replicon cells; details: read-out: HCV Replicon CC50; XTT, 72 hours
Outline: as §1

[2] = tested on: HCV Genotype 2a, NS5B Mutation none; test: microbe, parasite or virus in culture; assay type: cell-based
Experimental: (§2) Various patient-derived HCV genotypes containing wild-type and resistance-associated variants were used to determine their relative replication sensitivity to test compounds. Replicon resistance test vectors (RTVs) containing the NS5B genomic regions were prepared using viral RNA isolated from plasma of HCV patients. Each NS5B region was amplified by reverse-transcription polymerase chain reaction and cloned into an HCV replicon RTV which was then transferred by electroporation into Huh-7 cells.

[3] = tested on: HCV Genotype 1a, NS5B Mutation none; test: microbe, parasite or virus in culture; assay type: cell-based
Experimental: as §2

[4] = tested on: HCV Genotype 1a, NS5B Mutation L159F; test: microbe, parasite or virus in culture; assay type: cell-based
Experimental: as §2

[5] = tested on: HCV Genotype 1b, NS5B Mutation none; test: microbe, parasite or virus in culture; assay type: cell-based
Experimental: as §2

[6] = tested on: HCV Genotype 3a-2, NS5B Mutation none; test: microbe, parasite or virus in culture; assay type: cell-based
Experimental: as §2

[7] = tested on: HCV Genotype 3a-1, NS5B Mutation none; test: microbe, parasite or virus in culture; assay type: cell-based
Experimental: as §2

[8] = tested on: HCV Genotype 4d, NS5B Mutation none; test: microbe, parasite or virus in culture; assay type: cell-based
Experimental: as §2

[9] = tested on: HCV Genotype 2b, NS5B Mutation none; test: microbe, parasite or virus in culture; assay type: cell-based
Experimental: as §2

[10] = tested on: HCV Genotype 4a, NS5B Mutation none; test: microbe, parasite or virus in culture; assay type: cell-based
Experimental: as §2

[11] = tested on: HCV Genotype 1b, NS5B Mutation C316N; test: microbe, parasite or virus in culture; assay type: cell-based
Experimental: as §2

[12] = tested on: HCV Genotype 1a, NS5B Mutation L159F and S282T; test: microbe, parasite or virus in culture; assay type: cell-based
Experimental: as §2

[13] = tested on: human bone marrow progenitor cells; test: Human Bone Marrow Progenitor Cell Assay; assay type: cell-based; details: 14-day incubations, colony counts
Experimental: Fresh human bone marrow progenitor cells (Invitrogen) suspended in either BFU-E or GM-CSF-specific culture medium were added, at 10^5 cells/well, to triplicate serial dilutions of TA in 6-well plates. After 14-day incubations, colony counts were used to determine CC50 values. BFU-E colonies were confirmed using the benzidene technique.

iPS Cardiomyocytes = test: iPS Cardiomyocyte Assay; assay type: cell-based, human; details: 3 days, XTT
Experimental: iPS Cardiomyocytes (Cellular Dynamics) were seeded in microliter plates at 1.5×10^4 cells per well. After 48-hr incubation, cells were washed and maintenance medium containing serially diluted TA was added in triplicate. After incubating for an additional 3 days, cell viability was measured by staining with XTT and CC50 values were calculated.

[14] = tested on: HCV genotype 1b luciferase reporter replicon; test: microbe, parasite or virus in culture; assay type: cell-based
[15] = tested on: HCV genotype 1b luciferase reporter replicon; test: microbe, parasite or virus in culture; assay type: cell-based; details: Hepatitis C virus, HuH-7-Luc/Neo-ET, 72 h, read-out: HCV Replicon EC50/EC95: EC50
[16] = Hepatitis C virus, read-out: IC50 Value
[17] = genotype 3a-2, no NS5B mutation
[18] = genotype 3a-1, no NS5B mutation
[19] = genotype 1a, NS5B L159F and S282T

CC(C)OC(=O)[C@H](C)N[P@](=O)(OCC1O[C@@H](n2cnc3c(N(C)C4CC4)nc(N)nc32)[C@](C)(F)[C@@H]1O)Oc1ccccc1 (stereo partly drawn) [Compound 27, isopropyl ((((S)-(2R,3R,4R,5R)-5-(2-amino-6-(methylcyclopropanamino)-9H-purin-9-yl)-4-fluoro-3-hydroxy-4-methyltetrahydrofuran-2-yl)methoxy)-phenoxy-phosphoryl)-L-alaninate]
predominant metabolite observed in cultured human hepatocytes (human hepatocytes): β-D-2′-deoxy-2′-α-fluoro-2′-β-methyl-guanine triphosphate
CC50 at 72 h [1]: > 100000 nM
CC50 (Huh-7 luc/neo ET cells): > 100000 nM
IC50 [2, 16]: 2.9 nM
Fold Change in IC50 from Sofosbuvir ([2]; genotype 2a, no NS5B mutation): 7.9
Fold Change in IC95 from Sofosbuvir ([2]; genotype 2a, no NS5B mutation): 12.0
IC95 Value ([2]; genotype 2a, no NS5B mutation): 16.2 nM
IC50 [3, 16]: 4.2 nM
Fold Change in IC50 from Sofosbuvir ([3]; genotype 1a, no NS5B mutation): 15.0
Fold Change in IC95 from Sofosbuvir ([3]; genotype 1a, no NS5B mutation): 19.3
IC95 Value ([3]; genotype 1a, no NS5B mutation): 26.4 nM
cross-resistance to L159F mutant [4]: neither 25, 27 nor 5-2 compound showed any evidence of cross-resistance
IC50 [4, 16]: 5.1 nM
Fold Change in IC50 from Sofosbuvir ([4]; genotype 1a, NS5B L159F): 22.3
Fold Change in IC95 from Sofosbuvir ([4]; genotype 1a, NS5B L159F): 29.5
IC95 Value ([4]; genotype 1a, NS5B L159F): 36.2 nM
IC50 [5, 16]: 5 nM
Fold Change in IC50 from Sofosbuvir ([5]; genotype 1b, no NS5B mutation): 0.9
Fold Change in IC95 from Sofosbuvir ([5]; genotype 1b, no NS5B mutation): 22.2
IC95 Value ([5]; genotype 1b, no NS5B mutation): 28.9 nM
IC50 [6, 16]: 4.5 nM
Fold Change in IC50 from Sofosbuvir [6, 17]: 27.5
Fold Change in IC95 from Sofosbuvir [6, 17]: 34.6
IC95 Value [6, 17]: 23.3 nM
IC50 [7, 16]: 4.4 nM
Fold Change in IC50 from Sofosbuvir [7, 18]: 28.4
Fold Change in IC95 from Sofosbuvir [7, 18]: 27.2
IC95 Value [7, 18]: 25.4 nM
IC50 ([8]; Hepatitis C virus, 96 h, read-out: IC50 Value): 5.6 nM
Fold Change in IC50 from Sofosbuvir ([8]; genotype 4d, no NS5B mutation): 16.7
Fold Change in IC95 from Sofosbuvir ([8]; genotype 4d, no NS5B mutation): 26.6
IC95 Value ([8]; genotype 4d, no NS5B mutation): 38.4 nM
IC50 [9, 16]: 3.1 nM
Fold Change in IC50 from Sofosbuvir ([9]; genotype 2b, no NS5B mutation): 14.4
Fold Change in IC95 from Sofosbuvir ([9]; genotype 2b, no NS5B mutation): 20.1
IC95 Value ([9]; genotype 2b, no NS5B mutation): 14.7 nM
IC50 [10, 16]: 3.6 nM
Fold Change in IC50 from Sofosbuvir ([10]; genotype 4a, no NS5B mutation): 20.7
Fold Change in IC95 from Sofosbuvir ([10]; genotype 4a, no NS5B mutation): 17.9
IC95 Value ([10]; genotype 4a, no NS5B mutation): 38.1 nM
cross-resistance to C316N mutant [11]: neither 25, 27 nor 5-2 compound showed any evidence of cross-resistance
IC50 [11, 16]: 3.1 nM
Fold Change in IC50 from Sofosbuvir ([11]; genotype 1b, NS5B C316N): 23.5
Fold Change in IC95 from Sofosbuvir ([11]; genotype 1b, NS5B C316N): 28.7
IC95 Value ([11]; genotype 1b, NS5B C316N): 16.5 nM
cross-resistance to L159F and S282T mutant [12]: neither 25, 27 nor 5-2 compound showed any evidence of cross-resistance
IC50 [12, 16]: 14.9 nM
Fold Change in IC50 from Sofosbuvir [12, 19]: 108.4
Fold Change in IC95 from Sofosbuvir [12, 19]: 119.7
IC95 Value [12, 19]: 141.6 nM
cytotoxicity against bone marrow stem cells in vitro [13]: no cytotoxicity
cytotoxicity against iPS cardiomyocytes in vitro (iPS Cardiomyocytes): no cytotoxicity
EC50 ([14]; Hepatitis C virus, read-out: EC50 in a replicon assay): 5 nM
EC95 ([14]; Hepatitis C virus, Huh-7 luc/neo ET cells, 72 hours, luciferase, read-out: HCV Replicon EC50/EC95: EC95): 25 nM
Fold increase in activity compared to parent nucleoside ([14]; Table 7): >1,100
EC50 [15]: 5 nM

Reference: patent US12084473B2, “β-D-2′-deoxy-2′-α-fluoro-2′-β-C-substituted-2-modified-N6-substituted purine nucleotides for HCV treatment” (Atea Pharmaceuticals, Inc., priority 2015, dated 2024)
